Measurements reported in patent publication US20170184612A1, “USE OF LEUKOCYTES AND NOVEL BIOMARKERS IN THE DIAGNOSIS, CONFIRMATION, AND TREATMENT OF A NEUROLOGICAL DISORDER” (The Trustees of Columbia University in the City of New York, priority 2014, published 2017).

What was measured:
Assay type in all cases: cell-based, human
[1] = tested on: peripheral blood mononuclear cells (PBMC), T cells; test: ELISpot assay, IL-5 release (SFC) after stimulation with a-synuclein epitope pools; conditions: for IL-g Peptide + (donors positive to the peptide): of donors tested (peptide); for IL-g Peptide +: number of donors positive to the single peptide
Summary of the method: (§1)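 Ficoll-isolated PBMC from PD patients and age-matched controls were stimulated 22 h at 37 °C with pools of candidate α-syn class I/II and phospho-S129 epitopes, then deconvoluted to single epitopes in responders. IFNγ and IL-5 spot-forming cells were counted colorimetrically, with ≥20 SFC per million cells counted as a response.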

[2] = tested on: peripheral blood mononuclear cells (PBMC), T cells; test: ELISpot assay, gamma-interferon release (SFC) after stimulation with a-synuclein epitope pools; conditions: for IFNg Peptide + (donors positive to the peptide): of donors tested (peptide); for IFNg Peptide +: number of donors positive to the single peptide
Summary of the method: as §1

[3] = tested on: peripheral blood mononuclear cells (PBMC), T cells; test: ELISpot assay, IFNg and IL-5 reactivity combined, T cell response to α-syn epitopes; conditions: flag 1/0 per peptide
Procedure: Blood from age matched controls and PD patients were obtained and mononuclear cells were isolated by gradient centrifugation.
Release of the cytokines gamma-interferon, which measures activation of CD4+ and/or CD8+ T cells, and the interleukin, IL-5, which measures activation of CD4+ T cells was measured by ELISpot assay. […] After 22 hours of stimulation at 37 C, the cells were removed and release of cytokines was measured by colorimetric detection of spot-forming cells (SFC). Confirmed release of cytokine is determined by the presence of a minimum of 20 SFC per million cells.
The binding algorithms in SubAim 1 predict how well the peptides would bind to MHC if present, but not if they are present in patients. To determine this, the presence of T cell response against the candidate antigens by patient blood-derived peripheral blood mononuclear cells (PBMC) is assessed by ELISPOT assays upon stimulation with the peptides. This assay detects and quantifies cytokine release (in this case, IFNγ and IL-5) from specific activated T cells.
Data were obtained from blood samples (25 ml) from 44 PD patients and 24 age-matched controls. The experiments were conducted blindly. PBMCs from these samples were isolated and exposed to pools comprising the 122 candidate class I and class II antigens and phosphorylated S129 epitopes generated in Subaim 1. For the PBMCs responsive to the pooled peptides, the response was then deconvoluted to identify individual epitopes.
PMBC fractions are recovered by standard methods with Ficoll gradient and T cells expansion (Oseroff et al., 2010). The methods for the analysis of T cell reactions and measurement of cytokines production using the enzyme-linked immunosorbent spot (ELISPOT) assay are published in analogous experiments to discover antigens in multiple sclerosis (Lolli et al., 2013) and in hay fever allergens (Oseroff et al., 2010). T cell responses are determined by measuring IFNγ and IL-5 release by ELISPOT. Statistical analysis of differences between populations is expected to be non-parametric and analyzed with the U-Mann-Whitney test. If there were a normal distribution of response, which is a priori unlikely as some patients have no T cell response, with an SD=1, 8 patients per group would be required to provide a p>90% that the study detect a >2 fold difference at a two-sided 0.05 significance level.

[4] = Patients Summary, PD patients, single peptide
[5] = second 'Pool Stimulated' section (from r296), 12 donors tested
[6] = peptide + / donors tested (peptide), second 'Pool Stimulated' section (from r296), 12 donors tested
[7] = single peptide, second 'Pool Stimulated' section (from r296), 12 donors tested
[8] = Normals Summary, single peptide

3521.0052 (KTKQGVAEAA; listed as Homo sapiens)
IL-g Peptide + (donors positive to the peptide) ([1]; Patients Summary, PD patients): 0 | IL-g Response Frequency [1, 4]: 0% | IL-g Total SFC [1, 4]: 0 SFC | IL-g Peptide + [1, 5]: 0 | IL-g Response Frequency [1, 6]: 0% | IL-g Total SFC [1, 7]: 0 SFC | IFNg Peptide + (donors positive to the peptide) ([2]; Patients Summary, PD patients): 0 | IFNg Response Frequency [2, 4]: 0% | IFNg Total SFC [2, 4]: 0 SFC | IFNg Peptide + [2, 5]: 0 | IFNg Response Frequency [2, 6]: 0% | IFNg Total SFC [2, 7]: 0 SFC | Peptides + in Patients & Normals [3]: 0

3521.001 (VFMKGLSKA; listed as Homo sapiens)
IL-g Peptide + (donors positive to the peptide) ([1]; Normals Summary): 1 | IL-g Avg SFC [1, 8]: 193 SFC | IL-g Response Frequency [1, 8]: 100% | IL-g Total SFC [1, 8]: 193 SFC | IL-g Peptide + (donors positive to the peptide) ([1]; Patients Summary, PD patients): 1 | IL-g Avg SFC [1, 4]: 634 SFC | IL-g Response Frequency [1, 4]: 33% | IL-g Total SFC [1, 4]: 634 SFC | IFNg Peptide + (donors positive to the peptide) ([2]; Normals Summary): 1 | IFNg Avg SFC [2, 8]: 220 SFC | IFNg Response Frequency [2, 8]: 100% | IFNg Total SFC [2, 8]: 220 SFC | IFNg Peptide + (donors positive to the peptide) ([2]; Patients Summary, PD patients): 1 | IFNg Avg SFC [2, 4]: 75 SFC | IFNg Response Frequency [2, 4]: 33% | IFNg Total SFC [2, 4]: 75 SFC | Peptides + in Patients & Normals [3]: 1

3521.0053 (KAKEGVVAAA; listed as Homo sapiens)
IL-g Peptide + (donors positive to the peptide) ([1]; Patients Summary, PD patients): 0 | IL-g Response Frequency [1, 4]: 0% | IL-g Total SFC [1, 4]: 0 SFC | IL-g Peptide + [1, 5]: 0 | IL-g Response Frequency [1, 6]: 0% | IL-g Total SFC [1, 7]: 0 SFC | IFNg Peptide + (donors positive to the peptide) ([2]; Patients Summary, PD patients): 0 | IFNg Response Frequency [2, 4]: 0% | IFNg Total SFC [2, 4]: 0 SFC | IFNg Peptide + [2, 5]: 0 | IFNg Response Frequency [2, 6]: 0% | IFNg Total SFC [2, 7]: 0 SFC | Peptides + in Patients & Normals [3]: 0

3521.0017 (FMKGLSKAK; listed as Homo sapiens)
IL-g Peptide + (donors positive to the peptide) ([1]; Normals Summary): 0 | IL-g Response Frequency [1, 8]: 0% | IL-g Total SFC [1, 8]: 0 SFC | IL-g Peptide + (donors positive to the peptide) ([1]; Patients Summary, PD patients): 0 | IL-g Response Frequency [1, 4]: 0% | IL-g Total SFC [1, 4]: 0 SFC | IFNg Peptide + (donors positive to the peptide) ([2]; Normals Summary): 1 | IFNg Avg SFC [2, 8]: 46.7 SFC | IFNg Response Frequency [2, 8]: 100% | IFNg Total SFC [2, 8]: 46.7 SFC | IFNg Peptide + (donors positive to the peptide) ([2]; Patients Summary, PD patients): 0 | IFNg Response Frequency [2, 4]: 0% | IFNg Total SFC [2, 4]: 0 SFC | Peptides + in Patients & Normals [3]: 0

3521.0066 (KAKEGVVAA; listed as Homo sapiens)
IL-g Peptide + (donors positive to the peptide) ([1]; Patients Summary, PD patients): 0 | IL-g Response Frequency [1, 4]: 0% | IL-g Total SFC [1, 4]: 0 SFC | IL-g Peptide + [1, 5]: 0 | IL-g Response Frequency [1, 6]: 0% | IL-g Total SFC [1, 7]: 0 SFC | IFNg Peptide + (donors positive to the peptide) ([2]; Patients Summary, PD patients): 0 | IFNg Response Frequency [2, 4]: 0% | IFNg Total SFC [2, 4]: 0 SFC | IFNg Peptide + [2, 5]: 0 | IFNg Response Frequency [2, 6]: 0% | IFNg Total SFC [2, 7]: 0 SFC | Peptides + in Patients & Normals [3]: 0

3521.0016 (DVFMKGLSK; listed as Homo sapiens)
IL-g Peptide + (donors positive to the peptide) ([1]; Normals Summary): 1 | IL-g Avg SFC [1, 8]: 180 SFC | IL-g Response Frequency [1, 8]: 100% | IL-g Total SFC [1, 8]: 780 SFC | IL-g Peptide + (donors positive to the peptide) ([1]; Patients Summary, PD patients): 0 | IL-g Response Frequency [1, 4]: 0% | IL-g Total SFC [1, 4]: 0 SFC | IFNg Peptide + (donors positive to the peptide) ([2]; Normals Summary): 1 | IFNg Avg SFC [2, 8]: 673 SFC | IFNg Response Frequency [2, 8]: 100% | IFNg Total SFC [2, 8]: 673 SFC | IFNg Peptide + (donors positive to the peptide) ([2]; Patients Summary, PD patients): 0 | IFNg Response Frequency [2, 4]: 0% | IFNg Total SFC [2, 4]: 0 SFC | Peptides + in Patients & Normals [3]: 0

3521.0004 (KTKEGVLYV; listed as Homo sapiens)
IL-g Peptide + (donors positive to the peptide) ([1]; Patients Summary, PD patients): 0 | IL-g Response Frequency [1, 4]: 0% | IL-g Total SFC [1, 4]: 0 SFC | IL-g Peptide + [1, 5]: 0 | IL-g Response Frequency [1, 6]: 0% | IL-g Total SFC [1, 7]: 0 SFC | IFNg Peptide + (donors positive to the peptide) ([2]; Patients Summary, PD patients): 0 | IFNg Response Frequency [2, 4]: 0% | IFNg Total SFC [2, 4]: 0 SFC | IFNg Peptide + [2, 5]: 0 | IFNg Response Frequency [2, 6]: 0% | IFNg Total SFC [2, 7]: 0 SFC | Peptides + in Patients & Normals [3]: 0

3521.008 (VAAAEKTKQGVAEAA; listed as Homo sapiens)
IL-g Peptide + (donors positive to the peptide) ([1]; Patients Summary, PD patients): 0 | IL-g Response Frequency [1, 4]: 0% | IL-g Total SFC [1, 4]: 0 SFC | IL-g Peptide + [1, 5]: 0 | IL-g Response Frequency [1, 6]: 0% | IL-g Total SFC [1, 7]: 0 SFC | IFNg Peptide + (donors positive to the peptide) ([2]; Patients Summary, PD patients): 1 | IFNg Avg SFC [2, 4]: 150 SFC | IFNg Response Frequency [2, 4]: 33% | IFNg Total SFC [2, 4]: 150 SFC | IFNg Peptide + [2, 5]: 0 | IFNg Response Frequency [2, 6]: 0% | IFNg Total SFC [2, 7]: 0 SFC | Peptides + in Patients & Normals [3]: 0

3521.0074 (VAAAEKTKQGVAEAP; listed as Homo sapiens)
IL-g Peptide + (donors positive to the peptide) ([1]; Patients Summary, PD patients): 0 | IL-g Response Frequency [1, 4]: 0% | IL-g Total SFC [1, 4]: 0 SFC | IL-g Peptide + [1, 5]: 0 | IL-g Response Frequency [1, 6]: 0% | IL-g Total SFC [1, 7]: 0 SFC | IFNg Peptide + (donors positive to the peptide) ([2]; Patients Summary, PD patients): 1 | IFNg Avg SFC [2, 4]: 67 SFC | IFNg Response Frequency [2, 4]: 33% | IFNg Total SFC [2, 4]: 67 SFC | IFNg Peptide + [2, 5]: 0 | IFNg Response Frequency [2, 6]: 0% | IFNg Total SFC [2, 7]: 0 SFC | Peptides + in Patients & Normals [3]: 0

3521.0043 (VFMKGLSKAK; listed as Homo sapiens)
IL-g Peptide + (donors positive to the peptide) ([1]; Patients Summary, PD patients): 1 | IL-g Avg SFC [1, 4]: 191 SFC | IL-g Response Frequency [1, 4]: 33% | IL-g Total SFC [1, 4]: 191 SFC | IL-g Peptide + [1, 5]: 1 | IL-g Response Frequency [1, 6]: 100% | IL-g Avg SFC [1, 7]: 93.3 SFC | IL-g Total SFC [1, 7]: 93.3 SFC | IFNg Peptide + (donors positive to the peptide) ([2]; Patients Summary, PD patients): 0 | IFNg Response Frequency [2, 4]: 0% | IFNg Total SFC [2, 4]: 0 SFC | IFNg Peptide + [2, 5]: 1 | IFNg Response Frequency [2, 6]: 100% | IFNg Avg SFC [2, 7]: 66.7 SFC | IFNg Total SFC [2, 7]: 66.7 SFC | Peptides + in Patients & Normals [3]: 1
